Here are results for 2 compounds from US20260108503A1, “POLYMERIC MICELLE NANOCARRIERS FOR TARGETED EPIDERMAL DELIVERY OF THE HEDGEHOG PATHWAY INHIBITOR TAK-441” (UNIVERSITÉ DE GENÈ DE GENÈVE, priority 2022, published 2026).

Data set [1] is described as follows: Determination of TAK-441 content in the micelles (UHPLC-MS/MS). The format is physicochemical. To be noted: incorporation of TAK-441 in TPGS micelles. The protocol: TAK-441 loaded into the micelles was quantified by UHPLC-MS/MS. To ensure complete micelle destruction and release of the incorporated drug, formulations were diluted in acetonitrile and analyzed. The drug content, drug loading, and entrapment efficiency were calculated using equations 1-3: […]

Data set [2] can be described thus: Cutaneous delivery and biodistribution in vitro, Franz-type diffusion cells, porcine skin. To be noted: 12 h application. The format is in vitro ADME. The source says: Porcine ears were purchased from a local abattoir (CARRE; Rolle, Switzerland) shortly after sacrifice. After washing under running cold water, skin samples with a thickness of approximately 0.8 mm were carefully harvested from the outer region of the ear using a Zimmer air dermatome (Münsingen, Switzerland). Hair was removed from the skin surface using clippers. Discs corresponding to the permeation area were punched out (Berg & Schmid HK 500; Urdorf, Switzerland). Skin samples were frozen at −20° C. and stored for a maximum period of 3 months. Before the experiment, skin samples were thawed at room temperature and placed for 15 min in 0.9% saline solution for rehydration. […]
(§1) TAK-441 had the least solubility in HPC; this characteristic would minimize the risk of interference of the suspending agent on drug delivery. […] After centrifugation at 10,000 rpm for 15 min, the permeation samples were analyzed by UHPLC-MS/MS. […]
Upon completion of the experiment, a punch was used to separate the skin sample into two parts—an inner disk with a surface area of 0.785 cm^2 and a remaining outer ring with an area of 1.215 cm^2. This outer ring was subsequently cut into small pieces, and TAK-441 deposited in the tissue was extracted by the validated extraction method (section 1.4.5.2) followed by quantification using UHPLC-MS/MS. […]

Data set [3] in a line: Cutaneous delivery and biodistribution in vitro, Franz-type diffusion cells, human skin. It counts as in vitro ADME. As to the method: Human skin samples were obtained shortly after surgery from the Department of Plastic, Aesthetic and Reconstructive Surgery, Geneva University Hospital (Geneva, Switzerland), fatty tissue was removed and the skin was stored at −20° C. The donation was approved by the Central Committee for Ethics in Research (CER: 08-150 (NAC08-051); Geneva University Hospital).
The experiments were performed using standard two-compartment vertical (Franz-type) diffusion cells, (Milian SA; Meyrin, Switzerland) with a cross-sectional area of 2 cm^2. The receptor compartment consisted of 10-mL Dulbecco's phosphate-buffered saline (DPBS) pH 7.4 containing 1% BSA to maintain sink conditions. The receiver compartment was maintained between 32° C.-34° C. For infinite dose conditions, 200 μL of TAK-441 micelle formulation (3 mg/mL) was applied to the skin sample surface (i.e., 300 μg of TAK-441/cm^2 of the skin surface) and for finite dose, 20 μL of micelle formulation (3 mg/mL) was applied (30 μg of TAK-441/cm^2 of the skin surface). […]
as §1
Upon completion of the experiment, a punch was used to separate the skin sample into two parts—an inner disk with a surface area of 0.785 cm^2 and a remaining outer ring with an area of 1.215 cm^2. This outer ring was subsequently cut into small pieces, and TAK-441 deposited in the tissue was extracted by the validated extraction method (section 1.4.5.2) followed by quantification using UHPLC-MS/MS.
The 0.785-cm^2 disks were used to determine the TAK-441 biodistribution as a function of depth in the skin. […] These lamellae enabled the amounts of TAK-441 to be determined as a function of position in the skin, encompassing the stratum corneum, epidermis, and upper dermis, respectively. Each lamella and the remaining dermis were individually extracted in 250-μL methanol for 4 h and TAK-441 was quantified by UHPLC-MS/MS.

For another data set, the system named is HH pathway. To be noted: NIH3T3 cells, Gli-reporter luciferase; read-out: IC50, inhibition of the hedgehog pathway; cited from earlier work.
In data set [4] the target is vismodegib-resistant SMO mutant D473H (Homo sapiens, UniProt Q99835, D473H). To be noted: cited from earlier work.
For data set [5] the following is noted: cited from earlier work.
The test system of a further data set is Gli1 expression. To be noted: oral, all doses (50 mg/day to 1600 mg/day); cited from earlier work.
For data set [6] the following is noted: cited from earlier work. This is another data set of the same source.
For data set [7] the following is noted: human, in vivo; cited from earlier work.

The structures appear in SMILES notation. Entries after “also recorded” stand apart in the source; their conditions may differ.

vismodegib-resistant SMO mutant D473H, sequence (Q99835 28-787 D473H): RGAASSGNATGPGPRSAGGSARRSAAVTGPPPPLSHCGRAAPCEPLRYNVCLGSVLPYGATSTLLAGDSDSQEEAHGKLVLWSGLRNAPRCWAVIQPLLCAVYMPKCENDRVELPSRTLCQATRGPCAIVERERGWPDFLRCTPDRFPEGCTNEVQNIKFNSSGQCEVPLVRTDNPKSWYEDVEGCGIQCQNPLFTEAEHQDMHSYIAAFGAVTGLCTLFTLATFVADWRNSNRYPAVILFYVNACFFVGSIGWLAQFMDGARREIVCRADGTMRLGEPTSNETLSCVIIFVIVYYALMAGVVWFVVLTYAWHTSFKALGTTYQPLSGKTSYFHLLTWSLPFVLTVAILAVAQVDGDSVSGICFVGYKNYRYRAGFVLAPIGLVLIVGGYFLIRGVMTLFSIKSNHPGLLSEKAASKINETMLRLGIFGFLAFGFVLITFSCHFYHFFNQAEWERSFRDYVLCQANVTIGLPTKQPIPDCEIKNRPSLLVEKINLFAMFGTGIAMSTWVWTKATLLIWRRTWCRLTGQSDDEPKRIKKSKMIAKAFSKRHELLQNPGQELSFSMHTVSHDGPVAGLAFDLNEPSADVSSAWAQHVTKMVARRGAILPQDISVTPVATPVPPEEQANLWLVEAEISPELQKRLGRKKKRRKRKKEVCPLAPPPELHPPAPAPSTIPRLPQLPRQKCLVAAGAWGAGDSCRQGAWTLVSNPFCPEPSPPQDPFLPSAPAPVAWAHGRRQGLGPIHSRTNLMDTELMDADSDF

In the case of `CCc1cc2c(c(OCC(F)(F)F)c(C(=O)NC3CCN(C(=O)CO)CC3)n2C)c(=O)n1CC(=O)c1ccccc1` [TAK-441], in data set [1], the “increase of aqueous solubility” value is on record as “approximately 40 fold”. The “cumulative permeation (receiver compartment below LOD)” value in [2] is recorded as less than 0.1 pg/cm^2. This compound also came in with a cumulative permeation in data set [3] (conclusion, corresponding to LOD) of less than 0.1 pg/cm^2. Also, in data set [3] (conclusion, permeation samples, UHPLC-MS/MS), the “concentrations in the permeation samples (below LOD)” value is given as less than 1.29 ng/mL. The “transdermal permeation across human skin” value in [3] (human skin, 12 h application) is listed as “below the LOD”. In addition, the half-inhibitory concentration (IC50) in the data set on HH pathway is 4.4 nM. Moreover, in [4], the “activity against vismodegib-resistant Smoothened receptor D473H mutant” value is “active; also recorded: effective”. For the same compound, the “log P” value in data set [5] was 2.61. For the same compound, the “Gli1 expression in skin biopsies” value in the data set with Gli1 expression is “strongly inhibited”. Further, in [6] (cerebral hemorrhage, patient with pancreatic cancer), the “death assessed to be study drug-related” value is on record as “One death”. Further, in data set [6] (oral, Phase I), the “patients who experienced at least one adverse effect (AE)” value was “All patients” and the “patients who experienced serious AE” value is “Approximately 35%”.
Take `Cc1c(C(=O)Nc2ccc(N3C[C@@H](C)O[C@@H](C)C3)nc2)cccc1-c1ccc(OC(F)(F)F)cc1` [sonidegib]: the “treatment outcome in patients with resistance to vismodegib” value in [7] was “ineffective”.
